Measurements reported in patent US6730495B2, “Methods for the identification of antimicrobial compounds” (Mycologics, Inc., priority 2001, dated 2004).

Assays:
ketol-isomerase [1] = molecular target: ketol-isomerase (Aspergillus fumigatus, UniProt E9R5E2); test: nitro BT ketol-isomerase inhibition assay with crude A. fumigatus cell extract; type: biochemical; conditions: UDP-GlcNAc 0 to 10 mM
Description: Briefly, in this experiment, a series of ketol-isomerase reactions were analyzed in parallel, wherein each reaction mixture contained Fru-6-P, glutamine, and crude A. fumigatus cell extract (as described in Example 3). In addition, reactions also contained various concentrations of UDP-GlcNAc, ranging from 0 to 10 mM. Reactions were incubated at 37° C. for 60 minutes, after which time the ketol-isomerase reactions were terminated by heating at 70° C. for 15 min. However, the ketol-isomerase reaction can also be terminated by boiling for 5 minutes. In addition, the ketol-isomerase reaction can be clarified following the inactivation step by centrifugation or filtration.
Following arrest of the ketol-isomerase reaction, the necessary reagents for the nitro BT reaction were added to each reaction mixture, including glutamate dehydrogenase enzyme and molar excesses of β-NAD, PMS, and nitro BT. After incubation at 37° C. for 90 minutes, the color development was quantitated by measurement of OD585 nm. […]
In this experiment, 50 μL aliquots of a ketol-isomerase reaction mixture containing 10 mM Fru-6-P, 10 mM Gln, 0.3 mg/mL crude A. fumigatus extract, and various concentrations of UDP-GlcNAc were incubated at 37° C. for 60 minutes. […] After incubation at 37° C. for 90 minutes, the color development was quantitated by OD585 nm.

ketol-isomerase [2] = molecular target: T1, ketol-isomerase (Candida albicans, UniProt P53704); conditions: C. albicans strain ATCC No. 10261 crude cell extracts; Milewski et al., J. Biol. Chem., 274:4000-4008 [1999]; read-out: IC50, inhibition of ketol-isomerase activity; cited from earlier work
T1 construct: ketol-isomerase activity in crude cell extract of Candida albicans ATCC10261 yeast-like cells; host or cells: Candida albicans ATCC 10261 crude cell extract
T1 sequence (P53704 2-713): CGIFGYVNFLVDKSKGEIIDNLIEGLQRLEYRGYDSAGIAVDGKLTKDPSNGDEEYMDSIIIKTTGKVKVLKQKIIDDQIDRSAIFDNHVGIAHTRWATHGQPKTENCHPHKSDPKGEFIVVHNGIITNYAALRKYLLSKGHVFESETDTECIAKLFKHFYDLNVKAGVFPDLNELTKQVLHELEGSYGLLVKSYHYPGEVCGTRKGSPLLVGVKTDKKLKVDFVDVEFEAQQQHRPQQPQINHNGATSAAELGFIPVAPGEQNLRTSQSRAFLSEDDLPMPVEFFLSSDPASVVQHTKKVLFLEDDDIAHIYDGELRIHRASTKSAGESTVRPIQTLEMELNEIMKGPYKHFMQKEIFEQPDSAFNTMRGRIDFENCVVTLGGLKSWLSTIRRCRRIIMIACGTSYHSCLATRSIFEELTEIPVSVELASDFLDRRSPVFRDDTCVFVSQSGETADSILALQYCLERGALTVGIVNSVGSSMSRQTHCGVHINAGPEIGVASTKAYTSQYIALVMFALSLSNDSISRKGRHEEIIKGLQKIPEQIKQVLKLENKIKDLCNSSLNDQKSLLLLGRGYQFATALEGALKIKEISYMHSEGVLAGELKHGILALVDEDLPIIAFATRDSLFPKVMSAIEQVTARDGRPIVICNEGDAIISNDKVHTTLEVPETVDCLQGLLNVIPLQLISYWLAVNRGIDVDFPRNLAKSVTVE

ketol-isomerase (Aspergillus fumigatus, UniProt E9R5E2), sequence (E9R5E2 entry or part of it): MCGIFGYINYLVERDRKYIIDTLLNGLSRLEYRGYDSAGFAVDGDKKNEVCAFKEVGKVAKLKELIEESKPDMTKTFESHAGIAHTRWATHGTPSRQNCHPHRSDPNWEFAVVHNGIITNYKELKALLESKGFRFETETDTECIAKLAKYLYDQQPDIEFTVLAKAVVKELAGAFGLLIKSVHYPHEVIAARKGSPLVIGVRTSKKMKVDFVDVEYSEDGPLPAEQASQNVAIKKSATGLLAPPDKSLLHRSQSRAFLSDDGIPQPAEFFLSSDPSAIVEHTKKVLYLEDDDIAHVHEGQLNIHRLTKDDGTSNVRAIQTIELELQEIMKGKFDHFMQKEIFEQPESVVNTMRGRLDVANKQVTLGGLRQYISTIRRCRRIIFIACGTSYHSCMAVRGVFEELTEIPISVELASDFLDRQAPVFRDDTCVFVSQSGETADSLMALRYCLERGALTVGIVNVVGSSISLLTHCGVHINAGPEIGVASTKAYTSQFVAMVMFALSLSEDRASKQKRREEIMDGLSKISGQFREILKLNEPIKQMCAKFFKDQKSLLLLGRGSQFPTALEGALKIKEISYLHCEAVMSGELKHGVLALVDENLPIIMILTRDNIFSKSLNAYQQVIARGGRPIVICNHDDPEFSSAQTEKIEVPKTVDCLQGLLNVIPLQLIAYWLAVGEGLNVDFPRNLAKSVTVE

## CC(=O)N[C@H]1[C@@H](OP(=O)(O)OP(=O)(O)OC[C@H]2O[C@@H](n3ccc(=O)[nH]c3=O)[C@H](O)[C@@H]2O)O[C@H](CO)[C@@H](O)[C@@H]1O [UDP-GlcNAc, UDP-N-acetylglucosamine]
ketol-isomerase [1]
  inhibition of ketol-isomerase activity in A. fumigatus crude extract (FIG. 5): inhibited by UDP-GlcNAc in a dose-dependent manner
ketol-isomerase [2]
  IC50: 690 µM
